Results published in patent US7189351B2, “D-tagatose as an anti-biofilm agent” (priority 2001, dated 2007).

What was measured:
[1] = system: Actinomyces naeslundii PK947/Streptococcus oralis SO34; test: reversal of coaggregation, visual score; assay type: cell-based; details: pair PK947/SO34; sugar 200 mM; water score 3; scale 0 no visible to 4 maximum coaggregation
Experimental: (§1) Fifteen oral isolates, including both early colonizers (Streptococcus and Actinomyces) and late colonizers (Fusobacterium, Porphyromonas, Prevotella, Veillonella, Capnocytophaga, and Actinobacillus), were tested for their ability to coaggregate with each other, followed by testing for the reversal of coaggregation by the addition of D-tagatose. Bacterial strains used were of human gingival crevice origin. The coaggregation was examined visually by a scoring system ranging from 0 for no visible coaggregation to 4 for maximum coaggregation [Cisar J. O., Kolenbrander P. E., and McIntire F. C., “Specificity of coaggregation reactions between human oral streptococci and strains of Actinomyces viscosus or Actinomyces naeslundii”, Infect. Immun., 24:742–752. 1979]. D-Tagatose, at a concentration of less than 750 mM, completely reversed the coaggregation of 17 (60%) of 28 strong coaggregating pairs (with a coaggregation score of 2 or higher) tested. […] These D-tagatose sensitive coaggregations were D-galactose reversible as well.
(§2) Pairs of various species of oral bacteria were tested for coaggregation, and for reversal of coaggregation when D-tagatose or D-galactose was administered.

[2] = system: Actinomyces naeslundii PK947/Streptococcus oralis C104; test: reversal of coaggregation, visual score; assay type: cell-based; details: pair PK947/C104; sugar 200 mM; water score 2; scale 0 no visible to 4 maximum coaggregation
Experimental: as §1, §2

[3] = system: Actinomyces naeslundii PK29/Streptococcus morbillorum PK509; test: reversal of coaggregation, visual score; assay type: cell-based; details: pair PK29/PK509; sugar 200 mM; water score 2; scale 0 no visible to 4 maximum coaggregation
Experimental: as §1, §2

[4] = system: Actinomyces naeslundii PK947/Streptococcus mitis J22; test: reversal of coaggregation, visual score; assay type: cell-based; details: pair PK947/J22; sugar 200 mM; water score 2; scale 0 no visible to 4 maximum coaggregation
Experimental: as §1, §2

[5] = system: Actinomyces naeslundii PK29/Streptococcus mitis J22; test: reversal of coaggregation, visual score; assay type: cell-based; details: pair PK29/J22; sugar 750 mM; water score 4; scale 0 no visible to 4 maximum coaggregation
Experimental: as §1, §2

[6] = system: Prevotella loescheii PK1295/Streptococcus oralis SO34; test: reversal of coaggregation, visual score; assay type: cell-based; details: pair PK1295/SO34; sugar 750 mM; water score 4; scale 0 no visible to 4 maximum coaggregation
Experimental: as §1, §2

[7] = system: Prevotella loescheii PK1295/Streptococcus oralis C104; test: reversal of coaggregation, visual score; assay type: cell-based; details: pair PK1295/C104; sugar 750 mM; water score 4; scale 0 no visible to 4 maximum coaggregation
Experimental: as §1, §2

[8] = system: Veillonella atypica PK1910/Streptococcus oralis SO34; test: reversal of coaggregation, visual score; assay type: cell-based; details: pair PK1910/SO34; sugar 200 mM; water score 3; scale 0 no visible to 4 maximum coaggregation
Experimental: as §1, §2

[9] = system: Streptococcus morbillorum PK509/Streptococcus oralis C104; test: reversal of coaggregation, visual score; assay type: cell-based; details: pair PK509/C104; sugar 750 mM; water score 3; scale 0 no visible to 4 maximum coaggregation
Experimental: as §1, §2

[10] = system: Prevotella loescheii PK1295/Streptococcus mitis J22; test: reversal of coaggregation, visual score; assay type: cell-based; details: pair PK1295/J22; sugar 750 mM; water score 4; scale 0 no visible to 4 maximum coaggregation
Experimental: as §1, §2

[11] = system: Streptococcus morbillorum PK509/Veillonella atypica PK1910; test: reversal of coaggregation, visual score; assay type: cell-based; details: pair PK509/PK1910; sugar 400 mM; water score 2; scale 0 no visible to 4 maximum coaggregation
Experimental: as §1, §2

[12] = system: Fusobacterium nucleatum PK1594/Veillonella atypica PK1910; test: reversal of coaggregation, visual score; assay type: cell-based; details: pair PK1594/PK1910; sugar 200 mM; water score 3; scale 0 no visible to 4 maximum coaggregation
Experimental: as §1, §2

[13] = system: Veillonella atypica PK1910/Streptococcus oralis C104; test: reversal of coaggregation, visual score; assay type: cell-based; details: pair PK1910/C104; sugar 200 mM; water score 3; scale 0 no visible to 4 maximum coaggregation
Experimental: as §1, §2

[14] = system: Streptococcus morbillorum PK509/Streptococcus oralis SO34; test: reversal of coaggregation, visual score; assay type: cell-based; details: pair PK509/SO34; sugar 400 mM; water score 2; scale 0 no visible to 4 maximum coaggregation
Experimental: as §1, §2

[15] = system: Streptococcus morbillorum PK509/Prevotella loescheii PK1295; test: reversal of coaggregation, visual score; assay type: cell-based; details: pair PK509/PK1295; sugar 600 mM; water score 2; scale 0 no visible to 4 maximum coaggregation
Experimental: as §1, §2

[16] = system: Actinomyces naeslundii PK29/Streptococcus oralis C104; test: reversal of coaggregation, visual score; assay type: cell-based; details: pair PK29/C104; sugar 750 mM; water score 4; scale 0 no visible to 4 maximum coaggregation
Experimental: as §1, §2

[17] = system: Fusobacterium nucleatum PK1594/Porphyromonas gingivalis PK1924; test: reversal of coaggregation, visual score; assay type: cell-based; details: pair PK1594/PK1924; sugar 400 mM; water score 4; scale 0 no visible to 4 maximum coaggregation
Experimental: as §1, §2

[18] = system: Actinomyces naeslundii PK29/Streptococcus oralis SO34; test: reversal of coaggregation, visual score; assay type: cell-based; details: pair PK29/SO34; sugar 750 mM; water score 4; scale 0 no visible to 4 maximum coaggregation
Experimental: as §1, §2

[19] = system: Fusobacterium nucleatum PK1594/Actinobacillus actinomycetemcomitans JP2; test: reversal of coaggregation, visual score; assay type: cell-based; details: pair PK1594/JP2; sugar 600 mM; water score 3; scale 0 no visible to 4 maximum coaggregation
Experimental: as §1, §2

[20] = system: F. nucleatum PK1594 and P. gingivalis PK1924; test: phase-contrast photomicrographs of coaggregation; assay type: cell-based, Fusobacterium nucleatum; Porphyromonas gingivalis; details: 400 mM final concentration
[21] = system: coaggregating pairs of oral isolates (early and late colonizers); test: reversal of coaggregation among fifteen oral isolates (overall); assay type: cell-based, bacterial strains of human gingival crevice origin
Experimental: as §1, §2

Compound: OC[C@@H](O)[C@@H](O)[C@H](O)[C@@H](O)CO [D-Sorbitol]
- coaggregation score [1]: 2
- coaggregation score [2]: 1
- coaggregation score [3]: 2
- coaggregation score [4]: 2
- coaggregation score [5]: 4
- coaggregation score [6]: 1
- coaggregation score [7]: 2
- coaggregation score [8]: 1
- coaggregation score [9]: 1
- coaggregation score [10]: 2
- coaggregation score [11]: 0
- coaggregation score [12]: 1
- coaggregation score [13]: 1
- coaggregation score [14]: 1
- coaggregation score [15]: 0
- coaggregation score [16]: 4
- coaggregation score [17]: 3
- coaggregation score [18]: 4
- coaggregation score [19]: 2
- dissociation of coaggregate clumps [20]: did not dissociate the clumps
- plaque reversibility, comparison of Table 2 ([21]; D-tagatose and D-sorbitol at somewhat higher concentrations than D-galactose): markedly inferior
- effect on the coaggregating pairs tested ([21]; in contrast to D-tagatose): little or no effect
